Patent EP0411567A1, “5-(omega-Aminoacyl)-5,10-dihydro-11H-dibenzo[b,e][1,4]-diazepin-11-ones, processes for their preparation, and their use as medicaments” (ARZNEIMITTELWERK DRESDEN GmbH, priority 1989, dated 1991)
Where a name gives a salt, the structure may show the parent alone. Read-outs that look alike come from different tables or passages of the source.

Experiments:
[1] = system: CaCl₂-Arrhythmie der Ratte; assay: CaCl₂-induced arrhythmia in the rat (antifibrillatory effect); format: in vivo; settings: iv; for ED50: Rattus norvegicus, read-out: CaCl₂-Arrhythmie Ratte, ED₅₀
Excerpt: (§1) ED₅₀ i.v. = Dosis in mg/kg, welche die fibrillatorische Wirkung von CaCl₂ an Ratten nach I.v.-Applikation der Testsubstanz um 50 % unterdrückt. Berechnung nach der Probit-Regressionsanalyse mit Vertrauensbereich, p = 0,05 (Werte in Klammern) LD₅₀ i.v. = Letale Dosis in mg/kg bei 50 % der Versuchstiere einer orientierenden Bestimmung der akuten Toxizität an Wistarratten hauseigener Zucht, I.v.-Applikation in die Schwanzvene, 3 - 4 Dosierungen zu je 10 Tieren.

Wistarratten = assay: Orienting determination of acute toxicity in rats, i.v.; format: in vivo, Ratte; settings: therapeutic breadth; rat LD₅₀ i.v. / rat CaCl₂-arrhythmia ED₅₀
Excerpt: Die Verbindungen der allgemeinen Formeln I, VII bzw.
as §1
(§2) Berechnung nach der Probit-Regressionsanalyse mit Vertrauensbereich, p = 0,05 (Werte in Klammern) [formula] zur Ermittlung der therapeutischen Breite eff. Dosis = effektive Dosis in mg/kg Wirkungsdauer = Wirkungsdauer in Minuten an Hunden, 24 h nach zweistufiger Koronarligatur

[2] = system: Hunden, 24 Stunden nach zweistufiger Koronarligatur (Harris-Modell); assay: Two-stage coronary ligation in the dog (Harris model); format: in vivo, Hund; settings: for Ektopische Kontraktionen in Prozent/min / Gesamtzahl der Herzkontraktionen/min: mean x; for Harris Hund Wirkungsdauer / Harris Hund eff. Dosis i.v.: dogs, 24 h after two-stage coronary ligation; for Harris Hund Wirkungsdauer: at the effective i.v. dose
Description: Am Modell der zweistufigen Koronarligatur am Hund nach Harris (Methodik bei Kaverina und Mitarbeiter, Pharmazie 40, S. 845 (1985)) zeigen die Verbindungen der allgemeinen Formeln I, VII bzw. X eine starke und langanhaltende Wirkung (siehe Tabellen 2 und 3).
Bereits in der 5. Minute nach der intravenösen Injektion der Verbindungen der allgemeinen Formeln I, VII bzw. X in einer Konzentration von 0,005 mmol/kg (ca. 2,0 mg/kg) wird die ektopischeArrhythmie um das 2- bis 3-fache des Basiswertes unterdrückt, während die Gesamtzahl der Herzkontraktionen konstant bleibt. Die Wirkung auf die ektopische Arrhythmie hält 30 bis 60 Minuten lang an. Tabelle 1
as §2
x = Mittelwert s = Standardabweichung ±

[3] = system: Hunden, 24 Stunden nach zweistufiger Koronarligatur (Harris-Modell); settings: Harris model, cited from earlier work
[4] = dose suppressing the fibrillatory effect of CaCl₂ by 50 %, probit regression, confidence range p = 0,05 in brackets
[5] = 30 min after 0,005 mmol/kg i.v.
[6] = 60 min after 0,005 mmol/kg i.v.
[7] = 120 min after 0,005 mmol/kg i.v.
[8] = Basis (before injection), 0,005 mmol/kg group
[9] = 180 min after 0,005 mmol/kg i.v.
[10] = 300 min after 0,005 mmol/kg i.v.
[11] = 360 min after 0,005 mmol/kg i.v.
[12] = 5 min after 0,02 mmol/kg (5,4 mg/kg)
[13] = 30 min after 0,02 mmol/kg (5,4 mg/kg)
[14] = Basis (before injection), 0,02 mmol/kg (5,4 mg/kg) group

CCN(CC)CCCCCC(=O)N1c2ccc(Cl)cc2NC(=O)c2ccccc21 [Beispiel 6, 8-Chlor-5-(6-diethylaminocapronyl)-5,10-dihydro-11H-dibenzo[be] [1,4]diazepin-11-on]
ED50 [1, 4]: 0.44 mg/kg | Q LD₅₀/ED₅₀ (Wistarratten): 86 | Ektopische Kontraktionen in Prozent/min ([2]; 5 min after 0,005 mmol/kg i.v.): 20 Prozent | Gesamtzahl der Herzkontraktionen/min ([2]; 5 min after 0,005 mmol/kg i.v.): 170 min⁻¹ | Ektopische Kontraktionen in Prozent/min [2, 5]: 4 Prozent | Gesamtzahl der Herzkontraktionen/min [2, 5]: 159 min⁻¹ | Ektopische Kontraktionen in Prozent/min [2, 6]: 37 Prozent | Gesamtzahl der Herzkontraktionen/min [2, 6]: 162 min⁻¹ | Ektopische Kontraktionen in Prozent/min [2, 7]: 76 Prozent | Gesamtzahl der Herzkontraktionen/min [2, 7]: 162 min⁻¹ | Ektopische Kontraktionen in Prozent/min [2, 8]: 78 Prozent | Gesamtzahl der Herzkontraktionen/min [2, 8]: 167 min⁻¹ | Harris Hund Wirkungsdauer [2]: 60 min | Harris Hund eff. Dosis i.v. [2]: 2,07 mg/kg

CN(C)CCCCCC(=O)N1c2ccccc2NC(=O)c2ccccc21 [Beispiel 1, 5-(6-Dimethylaminocapronyl)-5,10-dihydro-11H-dibenzo [b,e]-[1,4] diazepin-11-on·HCl]
ED50 [1, 4]: 0.41 mg/kg | Q LD₅₀/ED₅₀ (Wistarratten): 207 | Ektopische Kontraktionen in Prozent/min ([2]; 5 min after 0,005 mmol/kg i.v.): 30 Prozent | Gesamtzahl der Herzkontraktionen/min ([2]; 5 min after 0,005 mmol/kg i.v.): 192 min⁻¹ | Ektopische Kontraktionen in Prozent/min [2, 5]: 47 Prozent | Gesamtzahl der Herzkontraktionen/min [2, 5]: 193 min⁻¹ | Ektopische Kontraktionen in Prozent/min [2, 6]: 54 Prozent | Gesamtzahl der Herzkontraktionen/min [2, 6]: 177 min⁻¹ | Ektopische Kontraktionen in Prozent/min [2, 7]: 68 Prozent | Gesamtzahl der Herzkontraktionen/min [2, 7]: 175 min⁻¹ | Ektopische Kontraktionen in Prozent/min [2, 9]: 80 Prozent | Gesamtzahl der Herzkontraktionen/min [2, 9]: 169 min⁻¹ | Ektopische Kontraktionen in Prozent/min [2, 8]: 99 Prozent | Gesamtzahl der Herzkontraktionen/min [2, 8]: 164 min⁻¹ | Harris Hund Wirkungsdauer [2]: 60 min | Harris Hund eff. Dosis i.v. [2]: 1,76 mg/kg

CCN(CC)CCCC(=O)N1c2ccccc2NC(=O)c2ccccc21 [Beispiel 2, 5-(4-Diethylaminobutyryl)-5,10-dihydro-11H-dibenzo[b,e]-[1,4]diazepin-11-on]
Ektopische Kontraktionen in Prozent/min ([2]; 5 min after 0,005 mmol/kg i.v.): 26 Prozent | Ektopische Kontraktionen in Prozent/min [2, 5]: 24 Prozent | Ektopische Kontraktionen in Prozent/min [2, 6]: 75 Prozent | Ektopische Kontraktionen in Prozent/min [2, 7]: 90 Prozent | Ektopische Kontraktionen in Prozent/min [2, 8]: 88 Prozent

O=C1Nc2cc(Cl)ccc2N(C(=O)CCCCCCN2CCOCC2)c2ccccc21 [Beispiel 9, 8-Chlor-5-(7-N-morpholinoönanthoyl)-5,10-dihydro-11H-dibenzo [b,e] [1,4]diazepin-11-on]
ED50 [1, 4]: 0.16 mg/kg | Q LD₅₀/ED₅₀ (Wistarratten): 256 | Ektopische Kontraktionen in Prozent/min ([2]; 5 min after 0,005 mmol/kg i.v.): 21 Prozent | Gesamtzahl der Herzkontraktionen/min ([2]; 5 min after 0,005 mmol/kg i.v.): 179 min⁻¹ | Ektopische Kontraktionen in Prozent/min [2, 5]: 38 Prozent | Gesamtzahl der Herzkontraktionen/min [2, 5]: 164 min⁻¹ | Ektopische Kontraktionen in Prozent/min [2, 6]: 42 Prozent | Gesamtzahl der Herzkontraktionen/min [2, 6]: 168 min⁻¹ | Ektopische Kontraktionen in Prozent/min [2, 7]: 42 Prozent | Gesamtzahl der Herzkontraktionen/min [2, 7]: 156 min⁻¹ | Ektopische Kontraktionen in Prozent/min [2, 9]: 73 Prozent | Gesamtzahl der Herzkontraktionen/min [2, 9]: 159 min⁻¹ | Ektopische Kontraktionen in Prozent/min [2, 10]: 79 Prozent | Gesamtzahl der Herzkontraktionen/min [2, 10]: 163 min⁻¹ | Ektopische Kontraktionen in Prozent/min [2, 11]: 89 Prozent | Gesamtzahl der Herzkontraktionen/min [2, 11]: 180 min⁻¹ | Ektopische Kontraktionen in Prozent/min [2, 8]: 90 Prozent | Gesamtzahl der Herzkontraktionen/min [2, 8]: 156 min⁻¹ | Harris Hund Wirkungsdauer [2]: 120 min | Harris Hund eff. Dosis i.v. [2]: 2,21 mg/kg

CCN(CC)CCCC(=O)N1c2ccc(Cl)cc2NC(=O)c2ccccc21 [Beispiel 4, 8-Chlor-5-(4-diethylaminobutyryl)-5,10-dihydro-11H-dibenzo[b,e] [1,4]diazepin-11-on]
ED50 [1, 4]: 0.044 mg/kg | Q LD₅₀/ED₅₀ (Wistarratten): 1614 | Gesamtzahl der Herzkontraktionen/min ([2]; 5 min after 0,005 mmol/kg i.v.): 175 min⁻¹ | Gesamtzahl der Herzkontraktionen/min [2, 5]: 180 min⁻¹ | Gesamtzahl der Herzkontraktionen/min [2, 6]: 181 min⁻¹ | Gesamtzahl der Herzkontraktionen/min [2, 7]: 183 min⁻¹ | Gesamtzahl der Herzkontraktionen/min [2, 8]: 183 min⁻¹ | Harris Hund Wirkungsdauer [2]: 30 min | Harris Hund eff. Dosis i.v. [2]: 1,93 mg/kg

C=CC1CN2CCC1CC2C(O)c1ccnc2ccc(OC)cc12 (centres unmarked) [Chinidin]
Harris Hund Wirkungsdauer ([3]; dogs, listed as whose dose is marked [1] (literature)): 15 min | Harris Hund eff. Dosis i.v. ([3]; dogs, value marked [1] (Mokler and van Arman 1962)): 10,0 [1] mg/kg | Gesamtzahl der Herzkontraktionen ([3]; in words, literature [1]): Abnahme | ektopische Arrhythmie ([3]; in words, literature [1]): Abnahme | CaCl₂-Arrhythmie Ratte, ED₅₀ ([1]; in vivo): 2,7 (2,0 - 3,7) mg/kg

CCN(CC)CC(=O)Nc1c(C)cccc1C [Lidocain, reference compound]
ED50 [1]: 3.1 mg/kg | Ektopische Kontraktionen in Prozent/min [2, 12]: 34 Prozent | Gesamtzahl der Herzkontraktionen/min [2, 12]: 139 min⁻¹ | Ektopische Kontraktionen in Prozent/min [2, 13]: 78 Prozent | Gesamtzahl der Herzkontraktionen/min [2, 13]: 138 min⁻¹ | Ektopische Kontraktionen in Prozent/min [2, 14]: 83 Prozent | Gesamtzahl der Herzkontraktionen/min [2, 14]: 146 min⁻¹ | Harris Hund Wirkungsdauer [2]: 15 min | Harris Hund eff. Dosis i.v. [2]: 8,0 mg/kg | Gesamtzahl der Herzkontraktionen ([2]; in words, Harris model): Abnahme | ektopische Arrhythmie ([2]; in words, Harris model): Abnahme
